Key:
[1] = topical ocular; some individuals; cited from earlier work
[2] = Stability in aqueous solutions; format: physicochemical
[3] = Distribution coefficient (log DC); format: physicochemical; conditions: read-out: log DC (Dist. Coeff.)
[4] = tested on: rabbit eye; assay: Mydriatic experiments, pupil diameter in the rabbit eye; format: in vivo, New Zealand Rabbit
Procedure: The right eye of a normal adult New Zealand Rabbit (3-4 months) was used to measure mydriasis. A flood of diffuse light was placed at a fixed distance from the rabbit eye so that the initial pupil diameter prior to administering eye drops was about 3 mm. Changes in pupil diameter were measured from photographs taken with a 35 mm single lens reflex camera equipped with a close-up lens. Pupil diameters were measured at time 0 through about 5 hours. A dosing volume of 10 μl was administered to the right eye of a group of eight rabbits. A period of at least three days was allowed between instillations of each formulation.

[5] = Hydrolysis in buffered aqueous solution at 35° C.; format: physicochemical; conditions: pH's between 1-7.5
Procedure: A series of experiments were conducted at 35° C. to determine the apparent first order hydrolysis rate constant for phenylephrine oxazolidine at […]. The progress of hydrolysis of the prodrug was followed by measuring the production of pivaldehyde subsequently trapped with thiosemicarbazide (pH<4) or semicarbazide (pH 4-7.5). The resulting formation of the carbazone derivative was followed using Uv spectroscopy at 235 and 265 nm (the spectroscopy was a 8450A UV/VIS Hewlett-Packard, Chicago, Ill.). The prodrug was dissolved in either pH 1, 2, 3, 4, 5, 6, 7 or 7.5 buffered aqueous solutions. The buffers used were hydrochloric acid, formate, acetate and phosphate solutions. The carbonyl trapping reagent was included in the buffer solutions at a concentration of 3.1×10(-3) M. The initial concentration of oxazolidine prodrug was about 1.8×10(-4) M. A volume of 3 ml was used for the reaction which was monitored directly in the absorbance cell. […] The concentration of carbazone was calculated by referring to a standard curve.

Row | SMILES | side effects [1] | stability in aqueous solutions [2] | logD [3] | potency relative to the aqueous solution of phenylephrine HCl ([4]; based upon pupillary diameter, versus 10% viscous preparation of phenylephrine HCl, FIG. 2) | mydriasis compared with phenylephrine HCl ([4]; molar equivalent concentration to 10% oil suspension of phenylephrine HCl, 10 μl to right eye, FIG. 1) | half-life [5] [min]
1 | CNC[C@H](O)c1cccc(O)c1 [phenylephrine, 3-hydroxy-α-[(methylamino)methyl]-benzyl alcohol] | hypertension, syncope, and even in some cases to myocardial infarction, leading to death | – | – | – | – | –
2 | CN1C[C@@H](c2cccc(O)c2)OC1C(C)(C)C (single isomer, unassigned) [phenylephrine oxazolidine, 2-t-butyl-3-methyl-5-(m-hydroxyphenyl)-1,3-oxazolidine] | – | not particularly stable in aqueous solutions | 1.383 ± 0.013 | approximately 10 times | significantly greater mydriasis | 5 to 12

From patent US4866083A, “2-t-butyl-3 alkyl-5-(m-hydroxyphenyl)-1,3-oxazolidines having mydriatic effect” (University of Iowa Research Foundation, priority 1987, dated 1989)
